From publication PMC2879007 (Biochemical pharmacology, 2010)
Marks after values point to notes of the source that are not given here.

Key:
purified human MAO-A = conditions: reversible competitive inhibitor; cited from earlier work
[1] = serum pharmacokinetics in wild-type FVB/N mice; assay type: in vivo; conditions: for Cmax / MRT / Tmax / half-life: FVB/N (wild-type), mouse, ip; for Cmax / MRT / Tmax / half-life / AUC0→∞: serum; for increase of Cmax by co-administered harmaline / increase of MRT by co-administered harmaline / increase of systemic exposure (AUC0→∞) by harmaline pre-treatment: 5-MeO-DMT 2 mg/kg i.p., harmaline 5 mg/kg i.p.
[2] = serum pharmacokinetics in Tg-CYP2D6; assay type: in vivo, mice; conditions: for Cmax / MRT / Tmax / half-life: Tg-CYP2D6 (CYP2D6-humanized), mouse, ip; for Cmax / MRT / Tmax / half-life / AUC0→∞: serum; for increase of systemic exposure (AUC0→∞) by harmaline pre-treatment: 5-MeO-DMT 2 mg/kg i.p., harmaline 5 mg/kg i.p.
[3] = tested on: human CYP2D6 PM hepatocytes; experiment: 5-MeO-DMT depletion and bufotenine formation in human CYP2D6 PM hepatocytes
[4] = tested on: human CYP2D6 EM hepatocytes; experiment: 5-MeO-DMT depletion and bufotenine formation in human CYP2D6 EM hepatocytes
CYP2D6.1 = CYP2D6.1 (Homo sapiens, UniProt P10635); experiment: bufotenine production from 5-MeO-DMT by recombinant CYP2D6.1; assay type: in vitro ADME
CYP2D6.2 = CYP2D6.2 (Homo sapiens, UniProt P10635, R296C/S486T); experiment: bufotenine production from 5-MeO-DMT by recombinant CYP2D6.2; assay type: in vitro ADME
CYP2D6.10 = CYP2D6.10 (Homo sapiens, UniProt P10635, P34S/S486T); experiment: bufotenine production from 5-MeO-DMT by recombinant CYP2D6.10; assay type: in vitro ADME
[5] = 5-MeO-DMT depletion and bufotenine formation in human CYP2D6 PM hepatocytes; conditions: human, 5-MeO-DMT alone, 2 µM; for hepatocyte CLint at 2 µM: In vitro CLint
[6] = 5-MeO-DMT depletion and bufotenine formation in human CYP2D6 EM hepatocytes; conditions: human, 5-MeO-DMT alone, 2 µM; for hepatocyte CLint at 2 µM: In vitro CLint
[7] = wild-type mice, 2 mg/kg 5-MeO-DMT alone i.p.
[8] = Tg-CYP2D6 mice, 2 mg/kg 5-MeO-DMT alone i.p.
[9] = bufotenine production from 5-MeO-DMT, Vmax/Km
[10] = bufotenine production from 5-MeO-DMT, mean ± SEM
[11] = 5-MeO-DMT O-demethylase activity
[12] = PM hepatocytes 2, with harmaline, 2 µM each
[13] = PM hepatocytes 3, with harmaline, 2 µM each
[14] = PM hepatocytes 4, with harmaline, 2 µM each

## COc1ccc2c3c([nH]c2c1)C(C)=NCC3 [Harmaline]
Purified human MAO-A
  Ki: 48 nM

## CN(C)CCc1c[nH]c2ccc(O)cc12 [Bufotenine, 5-hydroxy-N,N-dimethyltryptamine]
[1]; 2 mg/kg
  Cmax: 51.4 ± 9.1 nM
  MRT: 54.9 min
  Tmax: 11.3 min
  half-life: 33 ± 26 min
[1]; 20 mg/kg
  Cmax: 210 ± 54 nM
  MRT: 55.8 min
  Tmax: 21.3 min
  half-life: 25.4 ± 5.3 min
[1]; [7]
  AUC0→∞: 2.69 ± 1.21 µmol·min/L
  AUC(Bufotenine)/AUC(5−MeO−DMT): 10.5 ± 4.4%
[1]; wild-type mice, 2 mg/kg 5-MeO-DMT i.p. with 5 mg/kg harmaline i.p. pretreatment
  AUC(Bufotenine)/AUC(5−MeO−DMT): 15.1 ± 2.9%
[1]; wild-type mice
  increase of Cmax by co-administered harmaline: about 2.6 fold
  increase of MRT by co-administered harmaline: ~1.8 fold
  increase of systemic exposure (AUC0→∞) by harmaline pre-treatment: 6.1 fold
[2]; 20 mg/kg 5-MeO-DMT i.p.
  higher systemic exposure in Tg-CYP2D6 mice than wild-type mice: 60%
[2]; 2 mg/kg
  Cmax: 53 ± 13 nM
  MRT: 33.7 min
  Tmax: 8.8 min
  half-life: 20.7 ± 9.8 min
[2]; 20 mg/kg
  MRT: 52.8 min
  Tmax: 27.5 min
  half-life: 18.5 ± 1.5 min
[2]; [8]
  AUC(Bufotenine)/AUC(5−MeO−DMT): 8.5 ± 2.8%
  AUC0→∞: 1.82 ± 0.74 µmol·min/L
[2]; Tg-CYP2D6 mice, 2 mg/kg 5-MeO-DMT i.p. with 5 mg/kg harmaline i.p. pretreatment
  AUC(Bufotenine)/AUC(5−MeO−DMT): 24.0 ± 3.3% ^a, ^b
[2]; Tg-CYP2D6 mice
  increase of systemic exposure (AUC0→∞) by harmaline pre-treatment: 9.9 fold
[3]; CYP2D6 PM hepatocytes, even co-incubated with harmaline
  bufotenine formation from 5-MeO-DMT: could not produce detectable bufotenine
[4]; CYP2D6 EM hepatocytes
  bufotenine formation from 5-MeO-DMT: only detected in incubations with CYP2D6 EM hepatocytes

## COc1ccc2[nH]cc(CCN(C)C)c2c1 [5-MeO-DMT, 5-Methoxy-N,N-dimethyltryptamine]
CYP2D6.1; [9]
  CLint: 0.44 µL/pmol P450/min
CYP2D6.1; [10]
  Vmax: 12.8 ± 0.4 pmol/pmol P450/min
CYP2D6.1; human, recombinant CYP2D6.1 reconstituted with P450 reductase, pH 7.4
  Km at 5 min: 29.3 ± 4.2 µM
CYP2D6.2; [11]
  lower catalytic efficiency (Vmax/Km) compared with wild-type CYP2D6.1: 2.6 fold
CYP2D6.2; [9]
  CLint: 0.17 µL/pmol P450/min
CYP2D6.2; [10]
  Vmax: 14.4 ± 0.9 pmol/pmol P450/min
CYP2D6.2; human, recombinant CYP2D6.2 reconstituted with P450 reductase, pH 7.4
  Km at 5 min: 85 ± 19.4 µM
CYP2D6.10; [11]
  lower catalytic efficiency (Vmax/Km) compared with wild-type CYP2D6.1: 40 fold
CYP2D6.10; [9]
  CLint: 0.011 µL/pmol P450/min
CYP2D6.10; [10]
  Vmax: 10.3 ± 2.2 pmol/pmol P450/min
CYP2D6.10; human, recombinant CYP2D6.10 reconstituted with P450 reductase, pH 7.4
  Km at 20 min: 947 ± 355 µM
[1]; 2 mg/kg
  Cmax: 1360 ± 160 nM
  MRT: 19.1 min
  Tmax: 5.3 min
  half-life: 19.5 ± 12.2 min
[1]; 20 mg/kg
  Cmax: 18300 ± 2800 nM
  MRT: 27.2 min
  Tmax: 7.5 min
  half-life: 13.4 ± 1 min
[1]; [7]
  AUC0→∞: 25.1 ± 1.3 µmol·min/L
  clearance: 370 ± 20 mL/min/kg
[1]; wild-type mice, 20 mg/kg 5-MeO-DMT i.p.
  AUC0→∞: 650 ± 78 µmol·min/L
[1]; wild-type mice
  increase of Cmax by co-administered harmaline: about 1.4 fold
  increase of MRT by co-administered harmaline: ~2.1 fold
  increase of systemic exposure (AUC0→∞) by harmaline pre-treatment: 4.4 fold
[2]; 2 mg/kg
  Cmax: 1190 ± 330 nM
  MRT: 17.4 min
  Tmax: 5.8 min
  half-life: 14.7 ± 9 min
[2]; 20 mg/kg
  Cmax: 18700 ± 900 nM
  MRT: 23.1 min
  Tmax: 6.3 min
  half-life: 13.4 ± 1.4 min
[2]; [8]
  clearance: 440 ± 50 mL/min/kg
  AUC0→∞: 21.1 ± 2.3 ^b µmol·min/L
[2]; Tg-CYP2D6 mice
  increase of systemic exposure (AUC0→∞) by harmaline pre-treatment: 3.6 fold
[2]; Tg-CYP2D6 mice, 20 mg/kg 5-MeO-DMT i.p.
  AUC0→∞: 568 ± 72 µmol·min/L
[5]; CYP2D6 PM hepatocytes, PM hepatocytes Mean (N = 4)
  hepatocyte CLint at 2 µM: 81.9 µL/min/1e6 cells
[5]; CYP2D6 PM hepatocytes, In vitro T1/2, PM hepatocytes Mean (N = 4)
  half-life at 2 µM: 30.8 min
[5]; human CYP2D6 PM (poor metabolizer) hepatocytes, PM hepatocytes 1
  hepatocyte CLint at 2 µM: 66.5 µL/min/1e6 cells
[5]; human CYP2D6 PM (poor metabolizer) hepatocytes, PM hepatocytes 2
  hepatocyte CLint at 2 µM: 95.8 µL/min/1e6 cells
[5]; human CYP2D6 PM (poor metabolizer) hepatocytes, PM hepatocytes 3
  hepatocyte CLint at 2 µM: 88 µL/min/1e6 cells
[5]; human CYP2D6 PM (poor metabolizer) hepatocytes, In vitro T1/2, PM hepatocytes 1
  half-life at 2 µM: 37.2 min
[5]; human CYP2D6 PM (poor metabolizer) hepatocytes, In vitro T1/2, PM hepatocytes 2
  half-life at 2 µM: 27.6 min
[5]; human CYP2D6 PM (poor metabolizer) hepatocytes, In vitro T1/2, PM hepatocytes 3
  half-life at 2 µM: 32.2 min
[5]; human CYP2D6 PM (poor metabolizer) hepatocytes, In vitro T1/2, PM hepatocytes 4
  half-life at 2 µM: 26.1 min
[3]; PM hepatocytes 1, 5-MeO-DMT alone, 2 µM
  Ke: 0.0186 min⁻¹
[3]; PM hepatocytes 1, with harmaline, 2 µM each
  Ke: 0.00086 min⁻¹
[3]; PM hepatocytes 2, 5-MeO-DMT alone, 2 µM
  Ke: 0.0251 min⁻¹
[3]; [12]
  In vitro T1/2: cannot be estimated
  Ke: cannot be estimated
[3]; PM hepatocytes 3, 5-MeO-DMT alone, 2 µM
  Ke: 0.0215 min⁻¹
[3]; [13]
  In vitro T1/2: cannot be estimated
  Ke: cannot be estimated
[3]; PM hepatocytes 4, 5-MeO-DMT alone, 2 µM
  Ke: 0.0265 min⁻¹
[3]; [14]
  In vitro T1/2: cannot be estimated
  Ke: cannot be estimated
[3]; PM hepatocytes Mean (N = 4), 5-MeO-DMT alone, 2 µM
  Ke: 0.0229 min⁻¹
[3]; PM hepatocytes Mean (only one sample estimable), with harmaline, 2 µM each
  Ke: 0.00086 min⁻¹
[6]; CYP2D6 EM hepatocytes, In vitro T1/2, EM hepatocytes 1
  half-life at 2 µM: 32.4 min
[6]; CYP2D6 EM hepatocytes, In vitro T1/2, EM hepatocytes 2
  half-life at 2 µM: 29.9 min
[6]; human CYP2D6 EM (extensive metabolizer) hepatocytes, EM hepatocytes 3
  hepatocyte CLint at 2 µM: 141 µL/min/1e6 cells
[6]; human CYP2D6 EM (extensive metabolizer) hepatocytes, EM hepatocytes 4
  hepatocyte CLint at 2 µM: 51 µL/min/1e6 cells
[6]; human CYP2D6 EM (extensive metabolizer) hepatocytes, EM hepatocytes 5
  hepatocyte CLint at 2 µM: 87.4 µL/min/1e6 cells
[6]; human CYP2D6 EM (extensive metabolizer) hepatocytes, In vitro T1/2, EM hepatocytes 3
  half-life at 2 µM: 25.4 min
[6]; human CYP2D6 EM (extensive metabolizer) hepatocytes, In vitro T1/2, EM hepatocytes 4
  half-life at 2 µM: 34.7 min
[6]; human CYP2D6 EM (extensive metabolizer) hepatocytes, In vitro T1/2, EM hepatocytes 5
  half-life at 2 µM: 20.8 min
[6]; human CYP2D6 EM (extensive metabolizer) hepatocytes, In vitro T1/2, EM hepatocytes Mean (N = 5)
  half-life at 2 µM: 28.6 min
[4]; CYP2D6 EM hepatocytes, 5-MeO-DMT alone vs with harmaline
  reduction of in vitro CLint by co-administered harmaline: over 24 fold
[4]; EM hepatocytes 1, 5-MeO-DMT alone, 2 µM
  Ke: 0.0214 min⁻¹
[4]; EM hepatocytes 1, with harmaline, 2 µM each
  Ke: 0.00259 min⁻¹
[4]; EM hepatocytes 2, 5-MeO-DMT alone, 2 µM
  Ke: 0.0232 min⁻¹
[4]; EM hepatocytes 2, with harmaline, 2 µM each
  Ke: 0.00141 min⁻¹
[4]; EM hepatocytes 3, 5-MeO-DMT alone, 2 µM
  Ke: 0.0273 min⁻¹
[4]; EM hepatocytes 3, with harmaline, 2 µM each
  Ke: 0.00263 min⁻¹
[4]; EM hepatocytes 4, 5-MeO-DMT alone, 2 µM
  Ke: 0.02 min⁻¹
[4]; EM hepatocytes 4, with harmaline, 2 µM each
  Ke: 0.00195 min⁻¹
[4]; EM hepatocytes 5, 5-MeO-DMT alone, 2 µM
  Ke: 0.0333 min⁻¹
[4]; EM hepatocytes 5, with harmaline, 2 µM each
  Ke: 0.00061 min⁻¹
[4]; EM hepatocytes Mean (N = 5), 5-MeO-DMT alone, 2 µM
  Ke: 0.025 min⁻¹
[4]; EM hepatocytes Mean (N = 5), with harmaline, 2 µM each
  Ke: 0.00184 min⁻¹
